Data from EP0321849A2, “Method for the enzymatic hydrolysis of alpha-aminoadipinyl monoamino compounds” (HOECHST AKTIENGESELLSCHAFT, priority 1987, dated 1989).

Experiments:
[1] = molecular target: T1, γ-GTP (Bacillus subtilis, UniProt P54422); assay: Inhibition of γ-GTP by inhibitors (irreversible / reversible); type: biochemical; design: Das Enzym kommt in Mikroorganismen periplasmatisch und extrazellulär vor; endogenous in cells; host or cells: Bacteria cultured in nutrient medium (genera Pseudomonas, Proteus, Arthrobacter, Bacillus); preferred Bac. subtilis IFO 3025; settings: in the presence of the substance; kind of inhibition (irreversible or reversible)
[2] = molecular target: T1, γ-GTP; assay: Enzymatic hydrolysis of α-aminoadipinyl cephalosporins by γ-GTP enzyme concentrate (preparative conversion); type: biochemical, Bac. subtilis IFO 3025; design: Das so gewonnene Kulturfiltrat enthält 1350 U γ-GTP-Aktivität; endogenous in cells; host or cells: Bacillus subtilis IFO 3025 (natural producer); Culture filtrate, ammonium sulfate precipitation, DEAE-cellulose
Protocol: Analog Beispiel 1 wird eine Vorkultur mit Bac. subtilis IFO 3025 angezogen. 50 ml dieser Kultur dienen als Inokulum für 2 l Hauptkulturlösung in einem 5 l-Fermenter. Die Anzucht des Stammes erfolgt bei 34°C und einem Sauerstoffpartialdruck von 70 %. Die Bildung der γ-GTP wird photometrisch verfolgt und die Kultur bei maximalem Enzymtiter abgeerntet. Unter den gegebenen Bedingungen wird ein γ-GTP-Titer von 150 mU/ml Kulturlösung erreicht.
9 l Kulturlösung werden mittels Cross-Flow-Filtration (Ausschlußgrenze 300 000 Dalton) in Kulturfiltrat und Zellmasse getrennt. Das so gewonnene Kulturfiltrat enthält 1350 U γ-GTP-Aktivität.
Durch Zugabe von Ammoniumsulfat ad 70 % d. S. wird das Enzym gefällt und in einem 1/10 des Volumens wieder aufgenommen. Nach Dialyse gegen 20 mM Tris, pH 8,0, wird über eine DEAE-Cellulose Säule (DE 52, Whatman) das Enzym weiter gereinigt. Die aktiven Eluate werden vereinigt und konzentriert. Ein so gewonnenes γ-GTP-Präparat (mit ca. 25 U γ-GTP/ml) wird für die Umsetzungen verwendet.
Für eine präparative Umsetzung von Desacetyl-CPC wird folgender Ansatz gewählt: 100 µl Enzymkonzentrat, hergestellt nach Beispiel 3, und 100 µl 40 mM Desacetyl-CPC, gelöst in 20 mM Kaliumphosphatpuffer, pH 7,3 werden bei einer Temperatur von 33°C inkubiert. […]

[3] = substrate: N[C@@H](CCC(=O)Nc1ccc([N+](=O)[O-])cc1)C(=O)O; assay: Km determination of γ-GTP with L-γ-Glutamylparanitroanilid as substrate; type: biochemical; settings: other: substrate of γ-GTP, pH 8, 37.0 °C

[Hg] [Quecksilber]
Hemmung der γ-GTP [1]: reversible Hemmung

[N-]=[N+]=CC(=O)OC[C@H](N)C(=O)O [Azaserin]
Hemmung der γ-GTP [1]: irreversibel gehemmt

NC(=O)CI [Jodacetamid]
Hemmung der γ-GTP [1]: irreversibel gehemmt

CC(=O)OCC1=C(C(=O)O)N2C(=O)[C@@H](NC(=O)CCC[C@@H](N)C(=O)O)[C@H]2SC1 [CPC, Cephalosporin C]
7-Aminocephalosporansäure released ([2]; incubation conditions as in Beispiel 4 (pH 7,3, 33°C)): 3%

N[C@H](CCCC(=O)N[C@@H]1C(=O)N2C(C(=O)O)=C(CO)CS[C@H]12)C(=O)O [Desacetyl-CPC]
Desacetyl-7-Aminocephalosporansäure formed ([2]; 100 µl enzyme concentrate + 100 µl 40 mM substrate in 20 mM potassium phosphate buffer pH 7,3, 33°C): ≤ 16%

CC(=O)OCC1=C(C(=O)O)N2C(=O)[C@@H](N)[C@H]2SC1 [7-Aminocephalosporansäure]
Hemmung der γ-GTP [1]: reversible Hemmung

[Cu] [Kupfer]
Hemmung der γ-GTP [1]: reversible Hemmung

B1: γ-Glutamyltranspeptidase (γ-GTP) (Bacillus subtilis subsp. subtilis str. 168) (protein)
chain 1: DEYKQVDVGKDGMVATAHPLASEIGADVLKKGGNAIDAAVAIQFALNVTEPMMSGIGGGGFMMVYDGKTKDTTIIDSRERAPAGATPDMFLDENGKAIPFSERVTKGTAVGVPGTLKGLEEALDKWGTRSMKQLITPSIKLAEKGFPIDSVLAEAISDYQEKLSRTAAKDVFLPNGEPLKEGDTLIQKDLAKTFKLIRSKGTDAFYKGKFAKTLSDTVQDFGGSMTEKDLENYDITIDEPIWGDYQGYQIATTPPPSSGGIFLLQMLKILDHFNLSQYDVRSWEKYQLLAETMHLSYADRASYAGDPEFVNVPLKGLLHPDYIKERQQLINLDQVNKKPKAGDPWKYQEGSANYKQVEQPKDKVEGQ
chain 2: TTHFTVADRWGNVVSYTTTIEQLFGTGIMVPDYGVILNNELTDFDAIPGGANEVQPNKRPLSSMTPTILFKDDKPVLTVGSPGGATIISSVLQTILYHIEYGMELKAAVEEPRIYTNSMSSYRYEDGVPKDVLSKLNGMGHKFGTSPVDIGNVQSISIDHENGTFKGVADSSRNGAAIGINLKRK
notes: Das Enzym kommt in Mikroorganismen periplasmatisch und extrazellulär vor; endogenous in cells; host or cells: Bacteria cultured in nutrient medium (genera Pseudomonas, Proteus, Arthrobacter, Bacillus); preferred Bac. subtilis IFO 3025
Km [3]: 17,8 µM
